# Where two headings read alike, the source gives them in different places.
# Test system: Myc
# Experiment: Myc inhibition assay: Myc expression per cell by anti-Myc immunofluorescence, high-content imaging
# Assay type: cell-based, human (patient-derived medulloblastoma xenograft cells)
# Conditions: medulloblastoma PDX cells, 4 h
# Excerpt: To identify Myc inhibitors, cells isolated from patient-derived orthotopic xenografts (PDXs) from patients with Myc-driven medulloblastoma were used. Specifically, PDX cells were propagated by transplantation directly into the cerebellum of immunodeficient (NSG) mice and were never passaged in vitro in order to maintain properties of the tumor from which they were derived. Tumor tissues were isolated from tumor-bearing animals, dissociated into a single-cell suspension, resuspended in serum-free media, and immediately plated in 384 well plates. After overnight recovery, compounds were added to each well, and cells were incubated for 4 hours before being fixed and stained with anti-Myc antibodies and with DAPI to label nuclei. Cells were then analyzed using high-content imaging to determine the levels of Myc expression per cell and IC50 values of the compounds.
# [1] = Table 1, read-out: IC50 (Myc inhibition)
# [2] = Table 2, read-out: MYC Inhibition IC50
smiles,measurement,setting,value
"COc1ncc(-c2ccnc(Nc3cccc(C(F)(F)F)c3)n2)s1 [Compound 143, 4-(2-methoxythiazol-5-yl)-N-(3-(trifluoromethyl)phenyl)pyrimidin-2-amine]",IC50,[1],200 to 1000 nM
same,IC50,[2],200 to 1000 nM
"CNS(=O)(=O)c1cccc(Nc2nccc(-c3ccc4[nH]cnc4c3)n2)c1 [Compound 25, 3-((4-(1H-benzo[d]imidazol-5-yl)pyrimidin-2-yl)amino)-N-methylbenzenesulfonamide]",IC50,[1],< 200 nM
same,IC50,[2],< 200 nM
"NC(=O)c1ccc(Nc2nccc(-c3ccc4[nH]cnc4c3)n2)cc1 [Compound 73, 4-((4-(1H-benzo[d]imidazol-5-yl)pyrimidin-2-yl)amino)benzamide]",IC50,[1],1000 to 10000 nM
same,IC50,[2],1000 to 10000 nM
"c1cc(Nc2nccc(-c3ccc4[nH]cnc4c3)n2)cc(-c2ccn[nH]2)c1 [Compound 261, N-(3-(1H-pyrazol-5-yl)phenyl)-4-(1H-benzo[d]imidazol-5-yl)pyrimidin-2-amine]",IC50,[1],< 200 nM
same,IC50,[2],< 200 nM
"OCCOc1cccc(Nc2nccc(-c3ccnc(O)c3)n2)c1 [Compound 128, 4-(2-((3-(2-hydroxyethoxy)phenyl)amino)pyrimidin-4-yl)pyridin-2-ol]",IC50,[1],1000 to 10000 nM
same,IC50,[2],1000 to 10000 nM
"C#Cc1cccc(Nc2nccc(-c3ccc4[nH]cnc4c3)n2)c1 [Compound 93, 4-(1H-benzo[d]imidazol-5-yl)-N-(3-ethynylphenyl)pyrimidin-2-amine]",IC50,[1],200 to 1000 nM
same,IC50,[2],200 to 1000 nM
"Oc1cc(-c2ccnc(Nc3cc(C(F)(F)F)ccn3)n2)ccn1 [Compound 158, 4-(2-((4-(trifluoromethyl)pyridin-2-yl)amino)pyrimidin-4-yl)pyridin-2-ol]",IC50,[1],10000 to 100000 nM
same,IC50,[2],10000 to 100000 nM
"Oc1cncc(-c2ccnc(Nc3cccc(F)c3)n2)c1 [Compound 200, 5-(2-((3-fluorophenyl)amino)pyrimidin-4-yl)pyridin-3-ol]",IC50,[1],1000 to 10000 nM
same,IC50,[2],1000 to 10000 nM
"Oc1ccc(Nc2ccnc(Nc3cccc(F)c3)n2)cn1 [Compound 123, 5-((2-((3-fluorophenyl)amino)pyrimidin-4-yl)amino)pyridin-2-ol]",IC50,[1],10000 to 100000 nM
same,IC50,[2],10000 to 100000 nM
"COc1cncc(-c2ccnc(N(C)c3ccccc3)n2)c1 [Compound 224, 4-(5-methoxypyridin-3-yl)-N-methyl-N-phenylpyrimidin-2-amine]",IC50,[1],10000 to 100000 nM
same,IC50,[2],10000 to 100000 nM
"CN(C)S(=O)(=O)c1cccc(Nc2nccc(-c3ccc4[nH]cnc4c3)n2)c1 [Compound 7, 3-((4-(1H-benzo[d]imidazol-5-yl)pyrimidin-2-yl)amino)-N,N-dimethylbenzenesulfonamide]",IC50,[1],< 200 nM
same,IC50,[2],< 200 nM
"Cc1cccc(Nc2nccc(-c3ccc4[nH]cnc4c3)n2)c1 [Compound 40, 4-(1H-benzo[d]imidazol-5-yl)-N-(m-tolyl)pyrimidin-2-amine]",IC50,[1],200 to 1000 nM
same,IC50,[2],200 to 1000 nM
"c1cc(-c2ccc3[nH]cnc3c2)nc(Nc2cnn(C3CCOCC3)c2)n1 [Compound 6, 4-(1H-benzo[d]imidazol-5-yl)-N-(1-(tetrahydro-2H-pyran-4-yl)-1H-pyrazol-4-yl)pyrimidin-2-amine]",IC50,[1],1000 to 10000 nM
same,IC50,[2],1000 to 10000 nM
"CC(C)Nc1nccc(-c2ccc3[nH]cnc3c2)n1 [Compound 104, 4-(1H-benzo[d]imidazol-5-yl)-N-isopropylpyrimidin-2-amine]",IC50,[1],1000 to 10000 nM
same,IC50,[2],1000 to 10000 nM
"CN(c1cccc(C(F)(F)F)c1)c1nccc(-c2ccnc(O)c2)n1 [Compound 220, 4-(2-(methyl (3-(trifluoromethyl)phenyl)amino)pyrimidin-4-yl)pyridin-2-ol]",IC50,[1],10000 to 100000 nM
same,IC50,[2],10000 to 100000 nM
"COc1cc(-c2ccnc(Nc3cccc(C)c3)n2)ccn1 [Compound 160, 4-(2-methoxypyridin-4-yl)-N-(m-tolyl)pyrimidin-2-amine]",IC50,[1],1000 to 10000 nM
same,IC50,[2],1000 to 10000 nM
"Nc1cccc(Nc2nccc(-c3ccc4nc[nH]c4c3)n2)c1 [Compound 275, N1-(4-(1H-benzo[d]imidazol-6-yl)pyrimidin-2-yl)benzene-1,3-diamine]",IC50,[1],< 200 nM
same,IC50,[2],< 200 nM
"CN(C)C(=O)c1cccc(Nc2nccc(-c3ccc4[nH]cnc4c3)n2)c1 [Compound 18, 3-((4-(1H-benzo[d]imidazol-5-yl)pyrimidin-2-yl)amino)-N,N-dimethylbenzamide]",IC50,[1],1000 to 10000 nM
same,IC50,[2],1000 to 10000 nM
"c1cc(-c2ccc3[nH]cnc3c2)nc(Nc2ccc3sccc3c2)n1 [Compound 269, N-(benzo[b]thiophen-5-yl)-4-(1H-benzo[d]imidazol-5-yl)pyrimidin-2-amine]",IC50,[1],200 to 1000 nM
same,IC50,[2],200 to 1000 nM
"O=C1CNCCN1c1cccc(Nc2nccc(-c3ccc4[nH]cnc4c3)n2)c1 [Compound 63, 1-(3-((4-(1H-benzo[d]imidazol-5-yl)pyrimidin-2-yl)amino)phenyl)piperazin-2-one]",IC50,[1],1000 to 10000 nM
same,IC50,[2],1000 to 10000 nM
"CN(c1ccccc1)c1nccc(-c2ccnc(O)c2)n1 [Compound 221, 4-(2-(methyl(phenyl)amino)pyrimidin-4-yl)pyridin-2-ol]",IC50,[1],10000 to 100000 nM
same,IC50,[2],10000 to 100000 nM
"O=S(=O)(Nc1cccc(Nc2nccc(-c3ccc4[nH]cnc4c3)n2)c1)c1ccccc1 [Compound 38, N-(3-((4-(1H-benzo[d]imidazol-5-yl)pyrimidin-2-yl)amino)phenyl)benzenesulfonamide]",IC50,[1],200 to 1000 nM
same,IC50,[2],200 to 1000 nM
"COc1cc(-c2ccnc(Nc3cccc(C(F)(F)F)n3)n2)ccn1 [Compound 168, 4-(2-methoxypyridin-4-yl)-N-(6-(trifluoromethyl)pyridin-2-yl)pyrimidin-2-amine]",IC50,[1],10000 to 100000 nM
same,IC50,[2],10000 to 100000 nM
"Cn1cnc2ccc(-c3ccnc(Nc4cccc(C(F)(F)F)c4)n3)cc21 [Compound 41, 4-(1-methyl-1H-benzo[d]imidazol-6-yl)-N-(3-(trifluoromethyl)phenyl)pyrimidin-2-amine]",IC50,[1],< 200 nM
same,IC50,[2],< 200 nM
"COc1cc(-c2ccnc(Nc3cncc(C(F)(F)F)c3)n2)ccn1 [Compound 155, 4-(2-methoxypyridin-4-yl)-N-(5-(trifluoromethyl)pyridin-3-yl)pyrimidin-2-amine]",IC50,[1],10000 to 100000 nM
same,IC50,[2],10000 to 100000 nM
"CN1CCN(c2nccc(-c3ccc4[nH]cnc4c3)n2)CC1 [Compound 74, 5-(2-(4-methylpiperazin-1-yl)pyrimidin-4-yl)-1H-benzo[d]imidazole]",IC50,[1],1000 to 10000 nM
same,IC50,[2],1000 to 10000 nM
"CCC(=O)Nc1cccc(Nc2nccc(-c3ccc4[nH]cnc4c3)n2)c1 [Compound 15, N-(3-((4-(1H-benzo[d]imidazol-5-yl)pyrimidin-2-yl)amino)phenyl)propionamide]",IC50,[1],200 to 1000 nM
same,IC50,[2],200 to 1000 nM
"CN(c1ccccc1)c1nccc(-c2cncc(O)c2)n1 [Compound 218, 5-(2-(methyl(phenyl)amino)pyrimidin-4-yl)pyridin-3-ol]",IC50,[1],10000 to 100000 nM
same,IC50,[2],10000 to 100000 nM
"Cc1cccc(Nc2nccc(-c3cnc4nc[nH]c4c3)n2)c1 [Compound 136, 4-(1H-imidazo[4,5-b]pyridin-6-yl)-N-(m-tolyl)pyrimidin-2-amine]",IC50,[1],< 200 nM
same,IC50,[2],< 200 nM
"Clc1ccc(Nc2nccc(-c3ccc4[nH]cnc4c3)n2)cc1Cl [Compound 98, 4-(1H-benzo[d]imidazol-5-yl)-N-(3,4-dichlorophenyl)pyrimidin-2-amine]",IC50,[1],200 to 1000 nM
same,IC50,[2],200 to 1000 nM
"FC(F)(F)c1cccc(Nc2nccc(-c3cnc4nc[nH]c4c3)n2)c1 [Compound 161, 4-(1H-imidazo[4,5-b]pyridin-6-yl)-N-(3-(trifluoromethyl)phenyl)pyrimidin-2-amine]",IC50,[1],< 200 nM
same,IC50,[2],< 200 nM
"Oc1cc(-c2ccnc(Nc3ncccn3)n2)ccn1 [Compound 184, 4-(2-(pyrimidin-2-ylamino)pyrimidin-4-yl)pyridin-2-ol]",IC50,[1],10000 to 100000 nM
same,IC50,[2],10000 to 100000 nM
"CN(c1ccccc1)c1nccc(-c2ccc(O)nc2)n1 [Compound 222, 5-(2-(methyl(phenyl)amino)pyrimidin-4-yl)pyridin-2-ol]",IC50,[1],10000 to 100000 nM
same,IC50,[2],10000 to 100000 nM
"c1ccc(-c2cccc(Nc3nccc(-c4ccc5[nH]cnc5c4)n3)c2)cc1 [Compound 70, N-([1,1′-biphenyl]-3-yl)-4-(1H-benzo[d]imidazol-5-yl)pyrimidin-2-amine]",IC50,[1],< 200 nM
same,IC50,[2],< 200 nM
"c1ccc2cc(Nc3nccc(-c4ccc5[nH]cnc5c4)n3)ccc2c1 [Compound 55, 4-(1H-benzo[d]imidazol-5-yl)-N-(naphthalen-2-yl)pyrimidin-2-amine]",IC50,[1],200 to 1000 nM
same,IC50,[2],200 to 1000 nM
"O=S(=O)(Nc1ccccc1F)c1cccc(Nc2nccc(-c3ccc4[nH]cnc4c3)n2)c1 [Compound 12, 3-((4-(1H-benzo[d]imidazol-5-yl)pyrimidin-2-yl)amino)-N-(2-fluorophenyl)benzenesulfonamide]",IC50,[1],200 to 1000 nM
same,IC50,[2],200 to 1000 nM
"FC(F)(F)c1cccc(Nc2nccc(NCCc3cnc[nH]3)n2)c1 [Compound 111, N^4-(2-(1H-Imidazol-4-yl)ethyl)-N^2-(3-(trifluoromethyl)phenyl)pyrimidine-2,4-diamine]",IC50,[1],1000 to 10000 nM
same,IC50,[2],1000 to 10000 nM
"COc1cccc(Nc2nccc(-c3ccnc(O)c3)n2)c1 [Compound 191, 4-(2-((3-methoxyphenyl)amino)pyrimidin-4-yl)pyridin-2-ol]",IC50,[1],1000 to 10000 nM
same,IC50,[2],1000 to 10000 nM
"NS(=O)(=O)c1cccc(Nc2nccc(-c3ccc4[nH]cnc4c3)n2)c1 [Compound 46, 3-((4-(1H-benzo[d]imidazol-5-yl)pyrimidin-2-yl)amino)benzenesulfonamide]",IC50,[1],< 200 nM
same,IC50,[2],< 200 nM
"COc1cc(-c2ccnc(Nc3cccc(OCCO)c3)n2)ccn1 [Compound 129, 2-(3-((4-(2-methoxypyridin-4-yl)pyrimidin-2-yl)amino)phenoxy)ethan-1-ol]",IC50,[1],1000 to 10000 nM
same,IC50,[2],1000 to 10000 nM
